Assay results: patent US10131639B2, “Formulations of 2-(tert-butylamino)-4-((1R,3R,4R)-3-hydroxy-4methylcyclohexylamino)-pyrimidine-5-carboxamide” (Signal Pharmaceuticals, LLC, priority 2014, dated 2018)
Like-named read-outs stand apart in the source and are kept apart here.

Columns and labels:
[1] = Phase 1 study Part 2: single-dose plasma pharmacokinetics, relative bioavailability (tablet vs AIC) and food effect in healthy subjects; format: in vivo, human; details: for AUC(0-t) / Tmax / AUC(0-inf) / Cmax / Vd/F / half-life: human, plasma; for Vd/F: read-out: Vz/F (apparent total volume of distribution)
Protocol: Part 2 was an open label, randomized, crossover study with three periods. The study consisted of a screening phase (Days −21 to −2), baseline (Day −1), three treatment/assessment periods, and a follow up phone call.
Twelve eligible subjects reported to the study center on Day −1 of Period 1 for confinement and baseline assessments.
All subjects fasted overnight for at least 10 hours prior to dosing. For Treatment F, subjects received a standard high-fat breakfast 30 minutes before dosing. Dosing occurred 30 minutes (±5 minutes) after serving the meal.
Treatments D and E were administered in the morning following an overnight fast of at least 10 hours. Subjects who received Treatments D and E (fasted) continued to fast for at least 4 hours after dosing. For Treatment F, subjects received a standard high fat (approximately 50% of the total caloric content of the meal), high calorie (approximately 800 to 1000 calories) breakfast 30 minutes before dosing. The meal derived approximately 150, 250, and 500 to 600 calories from protein, carbohydrates, and fat, respectively. Subjects consumed the entire meal within 30 minutes of serving. Dosing occurred 30 minutes (±5 minutes) after serving the meal.
Actual sampling times were used in the calculation of PK parameters.
AUCt: AUC from time zero to the last quantifiable concentration.
AUC∞: AUC from time zero extrapolated to infinity.
Cmax: Maximum observed plasma concentration.
CL/F: Apparent total plasma clearance when dosed orally.
Vz/F: Apparent total volume of distribution when dosed orally.
t1/2: Terminal phase elimination half-life.
Geometric least squares (LS) means, ratio (fed/fasted) and 90% confidence intervals (CIs) of the ratio of geometric LS means were from an analysis of variance (ANOVA) model with treatment, period, and sequence as fixed effects, and subject nested within sequence as a random effect on the natural log-transformed pharmacokinetics.
The median, median difference (fed-fasted), and 90% confidence interval of the median difference were from the Hodges-Lehmann estimate.

[2] = tested on: UVB-induced phospho c-jun expression in skin; test: Phospho c-Jun immunohistochemistry of UVB-irradiated skin biopsies: histopathology scores (scale 0-4); format: in vivo, human
Description: On baseline (Day −1) and on the sixth day of each dosing period (Days 6, 12, and 18), the skin test sites were delineated on the subject's upper buttock between the beltline and the natal cleft on the right side. The right side of the buttock was divided into four different test sites, one site for 2×MED irradiation at baseline and each of the three dosing periods. Each test site was a minimum of 3 cm×3 cm. Subjects received 2×MED UV irradiation at baseline (Day −1) at approximately the same time that irradiation was scheduled on Days 6, 12, and 18, which was 2 hours postdose. Eight hours after UV irradiation (±10 minutes), a skin punch biopsy was taken from the UV exposure site. The biopsies were processed into tissue slides by a third party and analyzed by immunohistochemistry (IHC). This third party was blinded to the treatment periods (baseline and doses).
Phospho-c-Jun expression in biopsies was analyzed by IHC. Phospho-c-Jun IHC data were subjectively scored on a scale of 0 to 4 based on the intensity and number of epidermal keratinocyte nuclei stained within the tissue section by trained individuals blinded to treatment. The IHC was also analyzed by automated measurement of integrated optical density.
Phospho c-Jun immunohistochemistry (IHC) images were scored by 2 independent pathologists from Quintiles using a scoring scale of 0-4. The percentage of epithelial c-Jun positive nuclei was scored as follows: […]

[3] = Earlier human experience with Compound 1 (doses up to 480 mg QD×14 days); format: in vivo; details: healthy subjects
in vivo [4] = details: rat
Description: Based upon available human PK and preclinical pharmacology data, the doses were anticipated to provide a range of PD effects including both minimum and maximum JNK inhibition.

[5] = Solid state physical stability under stress conditions (XRPD); format: physicochemical; details: XRPD vs initial material
Protocol: A portion of the sample was loaded to a 4 mL clear glass vial. Four samples were prepared for each salt. The vials (open) were stored under 4 different stress conditions, respectively.

in vivo [6] = details: dog
[7] = 200 mg tablet vs 2×100 mg capsules, single oral dose, fasted
[8] = Comparison E/D: 200 mg tablet fasted vs 2×100 mg AIC fasted
[9] = Comparison F/E: 200 mg tablet fed vs fasted
[10] = single oral dose of 200 mg tablet

Compound: C[C@@H]1CC[C@@H](Nc2nc(NC(C)(C)C)ncc2C(N)=O)C[C@H]1O [Compound 1, 2-(tert-butylamino)-4-((1R,3R,4R)-3-hydroxy-4-methylcyclohexylamino)-pyrimidine-5-carboxamide]
- AUCt and AUC∞ of tablet compared to the capsules [1, 7]: equivalent
- Cmax of tablet lower relative to the capsule formulation [1, 7]: ~17%
- AUCt, Ratio (%) of Geometric Means [1, 8]: 92.6%
- AUC∞, Ratio (%) of Geometric Means [1, 8]: 92.9%
- Cmax, Ratio (%) of Geometric Means [1, 8]: 82.9%
- AUCt, Ratio (%) of Geometric Means [1, 9]: 100.6%
- AUC∞, Ratio (%) of Geometric Means [1, 9]: 100.8%
- Cmax, Ratio (%) of Geometric Means [1, 9]: 106.4%
- AUCτ (time 0 to the last quantifiable concentration) ([1]; Treatment F: 1×200 mg formulated tablet, single oral dose, fed (high-fat breakfast), geometric mean (geometric CV%), N=12): 12000 (27.4) ng · h/mL
- AUC(0-t) ([1]; 200 mg, Treatment D: 2×100 mg as AIC, single oral dose, fasted, healthy subjects, geometric mean (geometric CV%), N=12, read-out: AUCτ (time 0 to the last quantifiable concentration)): 12900 ng·h/mL
- Tmax ([1]; oral, 200 mg, Comparison E/D: 200 mg tablet fasted vs 2×100 mg AIC fasted, read-out: tmax, Median Difference): 0.01 h
- Tmax ([1]; oral, 200 mg, Comparison F/E: 200 mg tablet fed vs fasted, read-out: tmax, Median Difference): 0.87 h
- Tmax ([1]; oral, postdose, for all doses (Part 1 and Part 2), read-out: median Tmax): 1.95 to 3 h
- AUC(0-t) ([1]; po, 200 mg, Treatment D: 2×100 mg as AIC, single oral dose, fasted, N=12, read-out: AUCt, Geometric Mean (ANOVA LS mean)): 12900 ng·h/mL
- AUC(0-inf) ([1]; po, 200 mg, Treatment D: 2×100 mg as AIC, single oral dose, fasted, N=12, read-out: AUC∞, Geometric Mean (ANOVA LS mean)): 13100 ng·h/mL
- Cmax ([1]; po, 200 mg, Treatment D: 2×100 mg as AIC, single oral dose, fasted, N=12, read-out: Cmax, Geometric Mean (ANOVA LS mean)): 2080 ng/mL
- Tmax ([1]; po, 200 mg, Treatment D: 2×100 mg as AIC, single oral dose, fasted, N=12, read-out: tmax, Median (Hodges-Lehmann estimate)): 2 h
- AUC(0-inf) ([1]; po, 200 mg, Treatment D: 2×100 mg as AIC, single oral dose, fasted, geometric mean (geometric CV%), N=12, read-out: AUC∞): 13100 ng·h/mL
- Cmax ([1]; po, 200 mg, Treatment D: 2×100 mg as AIC, single oral dose, fasted, geometric mean (geometric CV%), N=12, read-out: Cmax): 2080 ng/mL
- Vd/F ([1]; po, 200 mg, Treatment D: 2×100 mg as AIC, single oral dose, fasted, geometric mean (geometric CV%), N=12): 447 L
- half-life ([1]; po, 200 mg, Treatment D: 2×100 mg as AIC, single oral dose, fasted, geometric mean (geometric CV%), N=12, read-out: t1/2 (terminal elimination half-life) (converted)): 20.3 h
- Tmax ([1]; po, 200 mg, Treatment D: 2×100 mg as AIC, single oral dose, fasted, median (minimum, maximum), N=12, read-out: Tmax): 2 h
- AUC(0-t) ([1]; po, 200 mg, Treatment E: 1×200 mg formulated tablet, single oral dose, fasted, N=12, read-out: AUCt, Geometric Mean (ANOVA LS mean)): 11900 ng·h/mL
- AUC(0-inf) ([1]; po, 200 mg, Treatment E: 1×200 mg formulated tablet, single oral dose, fasted, N=12, read-out: AUC∞, Geometric Mean (ANOVA LS mean)): 12200 ng·h/mL
- Cmax ([1]; po, 200 mg, Treatment E: 1×200 mg formulated tablet, single oral dose, fasted, N=12, read-out: Cmax, Geometric Mean (ANOVA LS mean)): 1730 ng/mL
- Tmax ([1]; po, 200 mg, Treatment E: 1×200 mg formulated tablet, single oral dose, fasted, N=12, read-out: tmax, Median (Hodges-Lehmann estimate)): 2 h
- AUC(0-t) ([1]; po, 200 mg, Treatment E: 1×200 mg formulated tablet, single oral dose, fasted, geometric mean (geometric CV%), N=12, read-out: AUCτ (time 0 to the last quantifiable concentration)): 11900 ng·h/mL
- AUC(0-inf) ([1]; po, 200 mg, Treatment E: 1×200 mg formulated tablet, single oral dose, fasted, geometric mean (geometric CV%), N=12, read-out: AUC∞): 12200 ng·h/mL
- Cmax ([1]; po, 200 mg, Treatment E: 1×200 mg formulated tablet, single oral dose, fasted, geometric mean (geometric CV%), N=12, read-out: Cmax): 1730 ng/mL
- Vd/F ([1]; po, 200 mg, Treatment E: 1×200 mg formulated tablet, single oral dose, fasted, geometric mean (geometric CV%), N=12): 477 L
- half-life ([1]; po, 200 mg, Treatment E: 1×200 mg formulated tablet, single oral dose, fasted, geometric mean (geometric CV%), N=12, read-out: t1/2 (terminal elimination half-life) (converted)): 20.1 h
- Tmax ([1]; po, 200 mg, Treatment E: 1×200 mg formulated tablet, single oral dose, fasted, median (minimum, maximum), N=12, read-out: Tmax): 2 h
- AUC(0-t) ([1]; po, 200 mg, Treatment F: 1×200 mg formulated tablet, single oral dose, fed, N=12, read-out: AUCt, Geometric Mean (ANOVA LS mean)): 12000 ng·h/mL
- AUC(0-inf) ([1]; po, 200 mg, Treatment F: 1×200 mg formulated tablet, single oral dose, fed, N=12, read-out: AUC∞, Geometric Mean (ANOVA LS mean)): 12300 ng·h/mL
- Cmax ([1]; po, 200 mg, Treatment F: 1×200 mg formulated tablet, single oral dose, fed, N=12, read-out: Cmax, Geometric Mean (ANOVA LS mean)): 1840 ng/mL
- Tmax ([1]; po, 200 mg, Treatment F: 1×200 mg formulated tablet, single oral dose, fed, N=12, read-out: tmax, Median (Hodges-Lehmann estimate)): 3 h
- AUC(0-inf) ([1]; po, 200 mg, Treatment F: 1×200 mg formulated tablet, single oral dose, fed, geometric mean (geometric CV%), N=12, read-out: AUC∞): 12300 ng·h/mL
- Cmax ([1]; po, 200 mg, Treatment F: 1×200 mg formulated tablet, single oral dose, fed, geometric mean (geometric CV%), N=12, read-out: Cmax): 1840 ng/mL
- Vd/F ([1]; po, 200 mg, Treatment F: 1×200 mg formulated tablet, single oral dose, fed, geometric mean (geometric CV%), N=12): 510 L
- half-life ([1]; po, 200 mg, Treatment F: 1×200 mg formulated tablet, single oral dose, fed, geometric mean (geometric CV%), N=12, read-out: t1/2 (terminal elimination half-life) (converted)): 21.7 h
- Tmax ([1]; po, 200 mg, Treatment F: 1×200 mg formulated tablet, single oral dose, fed, median (minimum, maximum), N=12, read-out: Tmax): 3 h
- half-life ([1]; po, 200 mg, following a single oral dose of 200 mg, read-out: terminal elimination t1/2 (converted)): ~20 h
- correlation of plasma concentrations with whole blood concentration ([1]; single 200 mg dose, Treatment D (FIG. 106)): highly correlated
- effect of food on the PK of the tablet formulation ([1]; single oral 200 mg tablet, healthy subjects): no effect
- AUCt and AUC∞ under fed compared to fasted conditions [1, 10]: equivalent
- Cmax higher in the fed state compared to the fasted state [1, 10]: ~6%
- percentage of individuals showing either no change or a decrease in histopathology score ([2]; 60 mg dose group (8/15)): 53%
- percentage of individuals showing either no change or a decrease in histopathology score ([2]; 160 mg dose group (10/14)): 71%
- percentage of individuals showing either no change or a decrease in histopathology score ([2]; 400 mg dose group (11/14)): 79%
- change from baseline in median histopathology scores ([2]; 60, 160, 400 mg QD×6 days, scale 0-4, 2 independent pathologists): not significantly affected
- tolerability [3]: well tolerated
- AUC (in vivo [4]): 23400 ng·h/mL
- Physical stability (open vial, 2 weeks) ([5]; 80° C./75% RH, listed as Compound 1 (free base)): physically stable
- Physical stability (open vial, 2 weeks) ([5]; 80° C./75% RH, listed as Free base): no change
- Physical stability (open vial, 2 weeks) ([5]; 80° C., listed as Compound 1 (free base)): physically stable
- Physical stability (open vial, 2 weeks) ([5]; 80° C., listed as Free base): no change
- AUC at 28 days (in vivo [6]): 81200 ng·h/mL
